Data published in patent publication US11472778B2, “Hepatitis C virus NS3/4A protease inhibitors” (priority 2017, dated 2022).
Read-outs that look alike come from different tables or passages of the source.

What was measured:
[1] = rcm bond, 15-membered ring, Zhan 1b, 1,2-DCE, 70.0 °C
[2] = molecular target: T1, GT3a NS3/4A protease (Hepatitis C virus genotype 3a, UniProt Q81495); assay: biochemical; conditions: for Ki (Fold change) GT3a NS3/4A Protease: Table 3, Ki GT3a relative to GT1a WT
T1 construct: drug-resistant variant D168A, and GT3a NS3/4A protease; made in house; host or cells: Escherichia coli BL21(DE3)
Summary of the method: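 Protease at 2 nM pre-incubated 1 h at room temperature with increasing inhibitor concentrations in 50 mM Tris, 5% glycerol, 10 mM DTT, 0.6 mM LDAO, 4% DMSO. Three independent data sets per inhibitor and construct.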

[3] = tested on: HCV replicon D168V variant in Huh7 cells; assay: microbe, parasite or virus in culture; assay type: cell-based, Hepatitis C virus; conditions: for EC50: Hepatitis C virus; for Replicon EC50 (Fold change) D168V: Table 4, relative to WT replicon
Summary of the method: (§1)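 Chimeric Con1/H77-NS3 luciferase replicon, electroporated into Huh7 cells and grown with rising protease inhibitor levels; luciferase read 96 h later.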

[4] = molecular target: T2, wild-type GT1a NS3/4A protease (UniProt P27958, C1185S, species not given); assay type: biochemical, Hepatitis C virus; conditions: read-out: Ki (nM) GT1a WT NS3/4A Protease
T2 construct: Ki (nM) GT1a WT NS3/4A Protease
Summary of the method: (§2)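 Enzyme (GT1a wild type or D168A mutant, 2 nM) was preincubated with inhibitor dilutions for 1 h at room temperature in pH 7.5 Tris buffer with glycerol, DTT, LDAO and 4% DMSO.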

[5] = molecular target: GT1a D168A NS3/4A protease; assay type: biochemical, Hepatitis C virus; conditions: Table 3; Ki D168A relative to GT1a WT
Summary of the method: as §2

[6] = molecular target: T3, GT1a D168A NS3/4A protease (UniProt P27958, C1185S/D1194A, species not given); assay type: biochemical, Hepatitis C virus; conditions: read-out: Ki (nM) GT1a D168A NS3/4A Protease
T3 construct: Ki (nM) GT1a D168A NS3/4A Protease
Summary of the method: as §2

[7] = tested on: HCV replicon D168A variant in Huh7 cells; assay: microbe, parasite or virus in culture; assay type: cell-based, Hepatitis C virus; conditions: for EC50: Hepatitis C virus; for Replicon EC50 (Fold change) D168A: Table 4, relative to WT replicon
Summary of the method: as §1

[8] = tested on: HCV replicon R155K variant in Huh7 cells; assay: microbe, parasite or virus in culture; assay type: cell-based, Hepatitis C virus; conditions: for EC50: Hepatitis C virus; for Replicon EC50 (Fold change) R155K: Table 4, relative to WT replicon
Summary of the method: as §1

[9] = tested on: HCV replicon A156T variant in Huh7 cells; assay: microbe, parasite or virus in culture; assay type: cell-based, Hepatitis C virus; conditions: for EC50: Hepatitis C virus; for Replicon EC50 (Fold change) A156T: Table 4, relative to WT replicon
Summary of the method: as §1

[10] = tested on: wild-type HCV replicon in Huh7 cells; assay: Cell-based drug susceptibility (replicon) assay, wild-type; conditions: Hepatitis C virus, read-out: Replicon EC50 (nM) WT
Summary of the method: as §1

[11] = Huh-7, read-out: Replicon EC50 (nM) D168V, Table 4
[12] = Huh-7, 96 h, read-out: Replicon EC50 (nM) D168A, Table 2, Huh7 cells, luciferase 96 h
[13] = Huh-7, read-out: Replicon EC50 (nM) D168A, Table 4
[14] = Huh-7, read-out: Replicon EC50 (nM) R155K, Table 4
[15] = Huh-7, 96 h, read-out: Replicon EC50 (nM) A156T, Table 2, Huh7 cells, luciferase 96 h
[16] = Huh-7, read-out: Replicon EC50 (nM) A156T, Table 4

T1 sequence (Q81495 1033-1214): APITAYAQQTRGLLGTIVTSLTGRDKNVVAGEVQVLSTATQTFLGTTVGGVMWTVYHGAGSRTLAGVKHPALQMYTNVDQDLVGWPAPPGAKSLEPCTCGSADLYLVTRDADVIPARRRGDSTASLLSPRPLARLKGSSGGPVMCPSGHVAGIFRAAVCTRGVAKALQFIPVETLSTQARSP

| Compound | Ki [2] | Ki (Fold change) GT3a NS3/4A Protease [2] | EC50 [3, 11] | Replicon EC50 (Fold change) D168V [3] | Ki ([4]; Table 1) | Ki ([4]; Table 3) | Ki (Fold change) GT1a D168A NS3/4A Protease [5] | Ki ([6]; Table 1) | Ki ([6]; Table 3) | EC50 [7, 12] | EC50 [7, 13] | Replicon EC50 (Fold change) D168A [7] | EC50 [8, 14] | Replicon EC50 (Fold change) R155K [8] | EC50 [9, 15] | EC50 [9, 16] | Replicon EC50 (Fold change) A156T [9] | EC50 ([10]; Huh-7, Table 4) | other results |
| --- | --- | --- | --- | --- | --- | --- | --- | --- | --- | --- | --- | --- | --- | --- | --- | --- | --- | --- | --- |
| COc1ccc2nc(Cl)c(O[C@@H]3C[C@H]4C(=O)N[C@]5(C(=O)NS(=O)(=O)C6(C)CC6)C[C@H]5/C=C\CCCCC[C@H](NC(=O)OC(C)(C)C)C(=O)N4C3)nc2c1 [Compound 19c, tert-Butyl ((2R,6S,13aS,14aR,16aS,Z)-2-((3-chloro-7-methoxyquinoxalin-2-yl)oxy)-14a-(((1-methylcyclopropyl)sulfonyl)carbamoyl)-5,16-dioxo-1,2,3,5,6,7,8,9,10,11,13a,14,14a,15,16,16a-hexadecahydrocyclopropa[e]pyrrolo[1,2-a][1,4]diazacyclopentadecin-6-yl)carbamate] | 53.6 nM | (48) fold | 0.49 nM | (3) fold | 1.11 nM | 1.11 nM | (70) fold | 77.7 nM | 77.7 ± 6.1 nM | < 2 nM | 1.07 nM | (6) fold | 0.4 nM | (2) fold | 8.86 nM | 8.86 nM | (49) fold | 0.18 nM | ring closure, isolated yield ([1]; 5.0 mM): 86% |
| CCc1nc2ccc(OC)cc2nc1O[C@@H]1C[C@H]2C(=O)N[C@]3(C(=O)NS(=O)(=O)C4(C)CC4)C[C@H]3/C=C\CCCCC[C@H](NC(=O)OC(C)(C)C)C(=O)N2C1 [Compound 19a, tert-Butyl ((2R,6S,13aS,14aR,16aS,Z)-2-((3-ethyl-7-methoxyquinoxalin-2-yl)oxy)-14a-(((1-methylcyclopropyl)sulfonyl)carbamoyl)-5,16-dioxo-1,2,3,5,6,7,8,9,10,11,13a,14,14a,15,16,16a-hexadecahydrocyclopropa[e]pyrrolo[1,2-a][1,4]diazacyclopentadecin-6-yl)carbamate] | 171 nM | (94) fold | 6.42 nM | (15) fold | 1.82 nM | 1.82 nM | (30) fold | 55.2 nM | 55.2 ± 5.3 nM | 4.97 nM | 4.97 nM | (12) fold | 1.8 nM | (4) fold | 4.52 nM | 4.52 nM | (11) fold | 0.43 nM | ring closure, isolated yield ([1]; from C=CCCCCC[C@H](NC(=O)OC(C)(C)C)C(=O)N1C[C@H](Oc2nc3cc(OC)ccc3nc2CC)C[C@H]1C(=O)N[C@]1(C(=O)NS(=O)(=O)C2(C)CC2)C[C@H]1C=C, 6.0 mM): 71%; EC50 ([3]; Huh-7, 96 h, read-out: Replicon EC50 (nM) D168V, Table 2, Huh7 cells, luciferase 96 h): 6.42 nM; EC50 ([8]; Huh-7, 96 h, read-out: Replicon EC50 (nM) R155K, Table 2, Huh7 cells, luciferase 96 h): 1.8 nM; EC50 ([10]; Huh-7, 96 h, Table 2, Huh7 cells, luciferase 96 h): 0.43 nM |
